Measurements published in publication PMC11520566, “Discovery of pyrazole-based analogs as CDK2 inhibitors with apoptotic-inducing activity: design, synthesis and molecular dynamics study” (RSC Advances, 2024).

How the values were obtained:
[1] = tested on: CDK2; experiment: Western blot of CDK2 expression in HCT-116 cells; assay type: cell-based; conditions: 3 μM, 48 h, vs vehicle treated cells
Excerpt: The method of sodium dodecyl sulfate polyacrylamide gel electrophoresis (SDS-PAGE) is employed to separate proteins based on their size. When combined with western blotting (immunoblotting), both techniques are commonly used to identify the presence and/or relative abundance of a specific protein within a sample containing a complex mixture of proteins.[36] In this process, each sample's total protein content is loaded onto a gel and separated by electrophoresis, allowing proteins to migrate through the gel matrix under the influence of an electric current. To facilitate protein migration, the proteins are initially denatured and given a negative charge by exposure to a detergent like SDS. A molecular weight marker with known-sized bands assists in identifying proteins of interest. […] Typically, the secondary antibody is linked to an enzyme that generates luminescence upon reacting with its substrate. The intensity of the luminescence, directly correlating with the amount of protein that interacted with the antibody, is captured by a Bio-Rad Imager.[36] […]
HCT-116 cells were treated with either 3 μM of compound 4 and 1 μM of compound 9 and incubated 48 h. The cells were lysed by 1× RIPA buffer containing protease and phosphatase inhibitors to quantify the protein concentration by BCA protein assay. […]

[2] = tested on: HCC-2998; experiment: NCI 60 five dose assay, Colon cancer; assay type: cell-based, human
[3] = tested on: NCI-H460; experiment: NCI 60 five dose assay, Non-small cell lung cancer; assay type: cell-based, human
[4] = tested on: OVCAR-5; experiment: NCI 60 five dose assay, Ovarian cancer; assay type: cell-based, human
[5] = tested on: HCT-116 cells; experiment: Flow cytometry cell cycle analysis; assay type: cell-based; conditions: 1.806 μM
Experimental: Cell cycle analysis was conducted to explore the mechanism and the mode of action of the newly synthesized compounds as anticancer agents, typically inducing cytotoxicity by activating signaling pathways that trigger apoptosis.[35] […] Compound 4 was further subjected to cell cycle analysis following the established protocols.[35]
The cell cycle analysis protocol was performed on compound 4 on HCT-116 cells. This test is based on the content of DNA measured by staining using propidium iodide. Initially, the cells were washed in PBS before being kept at 4 °C for 3 min dropwise using the vortex addition of cold 70% ethanol to avoid cell clumping and to ensure fixation as well. Then, […] of a stock of […] ribonuclease was added to selectively stain only DNA. Finally, […] of a stock solution of […] of propidium iodide was added.[35]

[6] = tested on: NCI/ADR-RES; experiment: NCI 60 five dose assay, Ovarian cancer; assay type: cell-based, human
[7] = tested on: SR; experiment: NCI 60 five dose assay, Leukemia; assay type: cell-based, human
[8] = tested on: NCI-H522; experiment: NCI 60 five dose assay, Non-small cell lung cancer; assay type: cell-based, human
[9] = tested on: MCF7; experiment: NCI 60 five dose assay, Breast cancer; assay type: cell-based, human
[10] = tested on: SF-295; experiment: NCI 60 five dose assay, CNS cancer; assay type: cell-based, human
[11] = tested on: MDA-MB-435; experiment: NCI 60 five dose assay, Melanoma; assay type: cell-based, human
[12] = tested on: OVCAR-8; experiment: NCI 60 five dose assay, Ovarian cancer; assay type: cell-based, human
[13] = tested on: SK-MEL-28; experiment: NCI 60 five dose assay, Melanoma; assay type: cell-based, human
[14] = Homo sapiens, read-out: LC50 (the source's name)

CC(=NNc1ccc(S(N)(=O)=O)cc1)c1ccc(NN=C2C(=O)NN=C2Nc2ccccc2)cc1 [Compound 4, 4-(2-(1-(4-(2-(5-oxo-3-(phenylamino)-1,5-dihydro-4H-pyrazol-4-ylidene)hydrazinyl)phenyl)ethylidene)hydrazinyl)benzene sulfonamide]
expression of CDK-2 (western blot) [1]: inhibitions in the expression of CDK-2 | GI50 ([2]; Homo sapiens): 2.29 µM | CC50 [2, 14]: 21.3 µM | Percent Growth ([2]; Log10 Concentration -4.0 Molar): -100% | Percent Growth ([2]; Log10 Concentration -5.0 Molar): -26% | Percent Growth ([2]; Log10 Concentration -6.0 Molar): 93% | Percent Growth ([2]; Log10 Concentration -7.0 Molar): 88% | Percent Growth ([2]; Log10 Concentration -8.0 Molar): 80% | GI50 ([3]; Homo sapiens): 3.21 µM | CC50 [3, 14]: 45.3 µM | Percent Growth ([3]; Log10 Concentration -4.0 Molar): -78% | Percent Growth ([3]; Log10 Concentration -5.0 Molar): 4% | Percent Growth ([3]; Log10 Concentration -6.0 Molar): 97% | Percent Growth ([3]; Log10 Concentration -7.0 Molar): 103% | Percent Growth ([3]; Log10 Concentration -8.0 Molar): 102% | GI50 ([4]; Homo sapiens): 11 µM | CC50 [4, 14]: 54.2 µM | Percent Growth ([4]; Log10 Concentration -4.0 Molar): -88% | Percent Growth ([4]; Log10 Concentration -5.0 Molar): 56% | Percent Growth ([4]; Log10 Concentration -6.0 Molar): 93% | Percent Growth ([4]; Log10 Concentration -7.0 Molar): 96% | Percent Growth ([4]; Log10 Concentration -8.0 Molar): 95% | cell cycle result [5]: apoptotic cell growth arrest occurring at the G1 phase | %G2/M ([5]; control 6.82): 3.79% | %S ([5]; control 33.81): 23.05% | %G0/G1 ([5]; control 59.37): 73.16% | cell cycle result ([5]; listed as cpd4): cell growth arrest@ G1 | GI50 ([6]; Homo sapiens): > 100 µM | CC50 [6, 14]: > 100 µM | Percent Growth ([6]; Log10 Concentration -4.0 Molar): 65% | Percent Growth ([6]; Log10 Concentration -5.0 Molar): 86% | Percent Growth ([6]; Log10 Concentration -6.0 Molar): 96% | Percent Growth ([6]; Log10 Concentration -7.0 Molar): 101% | Percent Growth ([6]; Log10 Concentration -8.0 Molar): 97% | GI50 ([7]; Homo sapiens): 1.74 µM | CC50 [7, 14]: 23.6 µM | Percent Growth ([7]; Log10 Concentration -4.0 Molar): -87% | Percent Growth ([7]; Log10 Concentration -5.0 Molar): -28% | Percent Growth ([7]; Log10 Concentration -6.0 Molar): 75% | Percent Growth ([7]; Log10 Concentration -7.0 Molar): 93% | Percent Growth ([7]; Log10 Concentration -8.0 Molar): 85% | GI50 ([8]; Homo sapiens): 2.17 µM | CC50 [8, 14]: 74.8 µM | Percent Growth ([8]; Log10 Concentration -4.0 Molar): -52% | Percent Growth ([8]; Log10 Concentration -5.0 Molar): -36% | Percent Growth ([8]; Log10 Concentration -6.0 Molar): 94% | Percent Growth ([8]; Log10 Concentration -7.0 Molar): 97% | Percent Growth ([8]; Log10 Concentration -8.0 Molar): 89% | GI50 ([9]; Homo sapiens): 2.4 µM | CC50 [9, 14]: 27.4 µM | Percent Growth ([9]; Log10 Concentration -4.0 Molar): -97% | Percent Growth ([9]; Log10 Concentration -5.0 Molar): -14% | Percent Growth ([9]; Log10 Concentration -6.0 Molar): 89% | Percent Growth ([9]; Log10 Concentration -7.0 Molar): 93% | Percent Growth ([9]; Log10 Concentration -8.0 Molar): 93% | GI50 ([10]; Homo sapiens): 3.67 µM | CC50 [10, 14]: 38.7 µM | Percent Growth ([10]; Log10 Concentration -4.0 Molar): -95% | Percent Growth ([10]; Log10 Concentration -5.0 Molar): 15% | Percent Growth ([10]; Log10 Concentration -6.0 Molar): 96% | Percent Growth ([10]; Log10 Concentration -7.0 Molar): 96% | Percent Growth ([10]; Log10 Concentration -8.0 Molar): 83% | GI50 ([11]; Homo sapiens): 2.07 µM | CC50 [11, 14]: 17.8 µM | Percent Growth ([11]; Log10 Concentration -4.0 Molar): -83% | Percent Growth ([11]; Log10 Concentration -5.0 Molar): -39% | Percent Growth ([11]; Log10 Concentration -6.0 Molar): 91% | Percent Growth ([11]; Log10 Concentration -7.0 Molar): 98% | Percent Growth ([11]; Log10 Concentration -8.0 Molar): 90% | GI50 ([12]; Homo sapiens): 2.59 µM | CC50 [12, 14]: 29 µM | Percent Growth ([12]; Log10 Concentration -4.0 Molar): -95% | Percent Growth ([12]; Log10 Concentration -5.0 Molar): -11% | Percent Growth ([12]; Log10 Concentration -6.0 Molar): 93% | Percent Growth ([12]; Log10 Concentration -7.0 Molar): 105% | Percent Growth ([12]; Log10 Concentration -8.0 Molar): 97% | GI50 ([13]; Homo sapiens): 1.91 µM | CC50 [13, 14]: 6.99 µM | Percent Growth ([13]; Log10 Concentration -4.0 Molar): -93% | Percent Growth ([13]; Log10 Concentration -5.0 Molar): -78% | Percent Growth ([13]; Log10 Concentration -6.0 Molar): 100% | Percent Growth ([13]; Log10 Concentration -7.0 Molar): 109% | Percent Growth ([13]; Log10 Concentration -8.0 Molar): 96%
